According to patent US8232273B2, “Heterocyclic compounds and methods of use” (Genentech, Inc., priority 2008, dated 2012):

Columns and labels:
[1] = target: Bcl-xL (GST-Bcl-xL) (Homo sapiens, UniProt Q07817); test: TR-FRET binding assay, competition with F-Bak for the Bcl-xL binding site; settings: values listed in the order of Table 1, read-out: TR-FRET assay results (Ki), Bcl-xL
[2] = target: T1, Bcl-2 (GST-Bcl-2) (Homo sapiens, UniProt P10415); test: TR-FRET binding assay, competition with F-Bak for the Bcl-2 binding site; settings: Bcl-2, for comparison (selectivity)
T1 construct: made in house
T1 sequence (P10415 whole entry, species assumed): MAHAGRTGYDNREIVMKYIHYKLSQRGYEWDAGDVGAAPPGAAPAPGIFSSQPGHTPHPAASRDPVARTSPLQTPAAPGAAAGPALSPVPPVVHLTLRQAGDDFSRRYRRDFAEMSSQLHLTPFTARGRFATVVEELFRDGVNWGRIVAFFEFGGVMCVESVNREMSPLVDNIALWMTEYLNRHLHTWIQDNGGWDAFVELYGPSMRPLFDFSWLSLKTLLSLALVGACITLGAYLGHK
Protocol: For each assay plate, a probe/antibody and protein/antibody/probe mixture were included as a negative and a positive control, respectively. Fluorescence was measured on the Envision (Perkin Elmer) using a 340/35 nm excitation filter and 520/525 (F-Bak) and 495/510 nm (Tb-labeled anti-his antibody) emission filters. Dissociation constants (Ki) were determined using Wang's equation (see, Wang, Z. X. An exact mathematical expression for describing competitive binding of two different ligands to a protein molecule. FEBS Lett. 1995 360:111-114). The TR-FRET assay can be performed in the presence of varying concentrations of human serum (HS) or fetal bovine serum (FBS). For comparison, the measurement of the competition of compounds of the invention for other Bcl-2 family protein binding sites (e.g., Bcl-2, Mcl-1) using the TR-FRET binding assay was accomplish by substituting GST-Bcl-xL in the TR-FRET assay with other GST-labeled protein, e.g., GST-Bcl-2, GST-Mcl-1, prepared in-house.

[3] = tested on: Mcl-1-/- mouse embryonic fibroblasts (MEF); test: Cell viability assay for Mcl-1-/- mouse embryonic fibroblasts (CellTiter-Glo); assay type: cell-based; settings: Fibroblast, in the presence of 10% Fetal Bovine Serum, read-out: MEF Mcl-1-/- KO cell viability results (EC50)
Source text: a. Cell Viability Assay for Mcl-1^−/− Mouse Embryonic Fibroblasts (MEF): […]
In this assay, Mcl-1^(−/−) cells were used to confirm that cell apoptosis in the presence of BH3 mimetic small molecules was due to predominantly Bcl-xL inactivation. This inactivation leaves Bax/Bak unconstrained and results in apoptosis. The […]-GLO Luminescent Cell Viability Assay is a homogeneous method of determining the number of viable cells in culture based on quantitation of the ATP present. The amount of ATP correlates with the presence of metabolically active cells such that following cell lysis the amount of ATP present is proportional to the amount of luminescence measured.
Mcl-1^(−/−) mouse embryonic fibroblasts (MEFs) are an adherent cell line prepared in house. MEFs were grown in Iwaki 75 cm^2 tissue culture flasks (cat #3123-075) with FMA media which consists of • 89% DME Kelso • 10% heat-inactivated foetal calf serum (FCS) (Hyclone cat #SH30396.03) • 1% 10 mM asparagine (Fluka cat #11149) • 275 μl of a 1:2000 dilution of 2-mercaptoethanol is added to the final 500 ml volume of FMA (Sigma cat #M7522; diluted in MT-PBS)
FMA was stored at 4° C. and used at 37° C. MEFs were cultured in FMA media and harvested in MT-PBS and trypsin. For MEF cell viability assays, cells were seeded separately in plates with 10% FCS-FMA and 1% FCS-FMA.
Assays were performed using white, flat clear-bottom Greiner 384-well tissue culture grade (Interpath #781098) plates. The compounds were made up in Matrical 384-well, 25 μl V-bottomed plates (cat #MP101-2-PP), sealed with aluminium foil from Beckman Coulter (cat #538619) and stored at 12° C. overnight. Compound preparation and titrations were performed in AnalaR grade DMSO (Merck cat #1.02952.2500). The cell viability detection assay used was […]-GLO™ which is commercially available from Promega (cat #G7572), stored at −20° C. and used at 37° C.
Compounds of the invention were prepared as 10 mM solution in 100% DMSO and stored at −20° C. Compounds were thawed to room temperature and dispensed into a 384 well Matrical plate. Standard control compounds, e.g. 32.3 mM Etoposide, were added to the plate as controls.
The media was aspirated and the Mcl-1^(−/−) cells washed with 10 mls of warmed MT-PBS. MT-PBS was aspirated and 1 ml of trypsin was added. The T75 flasks were incubated at 37° C. until the cells became detached. 4 ml of 10% FCS FMA media was added to the trypsinized cells and the entire volume was transferred to a 50 ml centrifuge tube and centrifuged for 3 minutes at 250 g. The supernatant was aspirated and the pellet resuspended in 10 ml of 10% FCS FMA. 3 ml of this cell suspension was added to a clean 75 cm^2 flask containing 17 ml of 10% FCS FMA media, thus performing a 3:10 split. The remaining cell suspension was used to perform a 1:50 split into another 75 cm^2 flask for further culturing.
Cells were harvested as per method step 1 and the pellet resuspended in 3 mls 10% FCS FMA. Cell number was determined by counting in a Neubauer haemocytometer and the dilution calculated to achieve a density of 1×10^4 cells ml^−1 (500 cells per well in 50 μl media). Separate dilutions were prepared in 50 ml 10% FCS FMA and 50 ml 1% FCS FMA solutions respectively.
Four assay plates were set up per compound plate. Two 384 well plates containing Mcl-1^(−/−) cells in 10% FCS FMA and the other two plates containing Mcl-1^(−/−) cells in 1% FCS FMA.
Using the Multidrop, 25 μl cells were dispensed aseptically into all 384 wells of the assay plates. Plates were left to rest in a non-stacked layer at room temperature for approximately 30 minutes (minimizes edge-effects) and then were placed as a single layer in the 37° C. incubator. The plates were left to incubate overnight.
The compound plates were titrated by performing a 3-fold 11-point dilution series using 100% DMSO on the MiniTrak. Following titration of the compounds, 100 nl of compounds were added to the cell plates using the Zymark Sciclone Pintool. […]

[4] = tested on: NCI-H146 human small cell lung carcinoma cells; test: Cellular viability of human tumor cell line NCI-H146 (MTS assay); assay type: cell-based; settings: 10% human serum, 48 hours of compound treatment
Protocol: NCI-H146 (ATCC, Manassas, Va.) human small cell lung carcinoma cells were plated 50,000 cells per well in 96-well tissue culture plates in a total volume of 100 μL tissue culture medium supplemented with 10% human serum (Invitrogen, Carlsbad, Calif.) and treated with a 2-fold serial dilution of the compounds of interest from 10 μM to […].
Each concentration was tested in duplicate at least 3 separate times. The number of viable cells following 48 hours of compound treatment was determined using the […] 96® Aqueous non-radioactive cell proliferation MTS assay according to manufacturer's recommendations (Promega Corp., Madison, Wis.).

[5] = tested on: Bcl-2, Bcl-w and Bcl-xL; settings: cited from earlier work
[6] = tested on: Mcl-1 and A1; settings: cited from earlier work
[7] = tested on: xenograft models; settings: animal studies, single agent; cited from earlier work
[8] = tested on: platelets; test: Cell viability assay for platelets (platelet rich plasma, CellTiter-Glo); assay type: cell-based; settings: approximately 4 hours at 37 C
Protocol: Platelet rich plasma (PRP) was incubated with a compound of the invention for approximately 4 hours at 37° C. After incubation, platelets were equilibrated to room temperature for 20 minutes and then and equal volume of CELL TITER-GLO™ reagent (Promega Corporation) was added. Samples were mixed for two minutes and then allowed to equilibrate for an additional 10 minutes at room temperature. The luminescence generated from the samples was quantitated using a LJL Analyst plate reader. Data analysis was performed using GraphPad Prism 4.0.

Bcl-xL (GST-Bcl-xL), sequence (Q07817 whole entry, species assumed): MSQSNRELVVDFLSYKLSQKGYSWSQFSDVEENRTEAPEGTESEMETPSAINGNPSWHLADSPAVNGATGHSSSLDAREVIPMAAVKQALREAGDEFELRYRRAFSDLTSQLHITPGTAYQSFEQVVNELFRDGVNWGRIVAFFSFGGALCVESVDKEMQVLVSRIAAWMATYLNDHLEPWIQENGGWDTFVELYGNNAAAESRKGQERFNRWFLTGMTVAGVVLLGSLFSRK

CN1CCN(c2ccc(OCCCc3sc(N4CCc5cccc(C(=O)Nc6nc7ccccc7s6)c5C4)nc3C(=O)O)cc2)CC1 [Example 82, 2-[8-(Benzothiazol-2-ylcarbamoyl)-3,4-dihydro-1H-isoquinolin-2-yl]-5-{3-[4-(4-methyl-piperazin-1-yl)-phenoxy]-propyl}-thiazole-4-carboxylic acid]
Ki [1]: 0.05 nM | Ki [2]: 120 nM | EC50 [3]: 30 nM | EC50 [4]: 2500 nM

CN(C)CC[C@H](CSc1ccccc1)Nc1ccc(S(=O)(=O)NC(=O)c2ccc(N3CCN(Cc4ccccc4-c4ccc(Cl)cc4)CC3)cc2)cc1[N+](=O)[O-] [ABT-737, N-(4-(4-((4′-chloro(1,1′-biphenyl)-2-yl)methyl)piperazin-1-yl)benzoyl)-4-(((1R)-3-(dimethylamino)-1-((phenylsulfanyl)methyl)propyl)amino)-3-nitrobenzenesulfonamide]
binding to Bcl-2, Bcl-w and Bcl-xL [5]: bind strongly | binding to Mcl-1 and A1 [6]: only weakly | cytotoxic activity in certain xenograft models as single agents [7]: demonstrated cytotoxic activity

CN(C)CC#Cc1ccc(OCCCc2ccc(N3CCc4cccc(C(=O)Nc5nc6ccccc6s5)c4C3)nc2C(=O)O)c(F)c1 [Example 97, 6-(8-(benzo[d]thiazol-2-ylcarbamoyl)-3,4-dihydroisoquinolin-2(1H)-yl)-3-(3-(4-(3-(dimethylamino)prop-1-ynyl)-2-fluorophenoxy)propyl)picolinic acid]
Ki [1]: 0.05 nM | Ki [2]: 272 nM | EC50 [3]: 26 nM | EC50 [8]: 3 nM | EC50 [4]: 2400 nM

CN(C)CC#Cc1ccc(OCCCc2sc(N3CCc4cccc(C(=O)Nc5nc6ccccc6s5)c4C3)nc2C(=O)O)cc1 [Example 74, 2-[8-(Benzothiazol-2-ylcarbamoyl)-3,4-dihydro-1H-isoquinolin-2-yl]-5-{3-[4-(3-dimethylamino-prop-1-ynyl)-phenoxy]-propyl}-thiazole-4-carboxylic acid]
Ki [1]: 0.05 nM | Ki [2]: 60 nM | EC50 [3]: 7 nM | EC50 [8]: 21 nM | EC50 [4]: 710 nM

CN1CCN(c2ccc(OCCCc3sc(N4CCc5cccc(C(=O)Nc6nc7ccccc7s6)c5C4)nc3C(=O)O)c(F)c2)CC1 [Example 93, 2-[8-(Benzothiazol-2-ylcarbamoyl)-3,4-dihydro-1H-isoquinolin-2-yl]-5-{3-[2-fluoro-4-(4-methyl-piperazin-1-yl)-phenoxy]-propyl}-thiazole-4-carboxylic acid]
Ki [1]: 0.05 nM | Ki [2]: 155 nM | EC50 [4]: 3200 nM

CC1(C)CCC(c2ccc(Cl)cc2)=C(CN2CCN(c3ccc(C(=O)NS(=O)(=O)c4ccc(N[C@H](CCN5CCOCC5)CSc5ccccc5)c(S(=O)(=O)C(F)(F)F)c4)cc3)CC2)C1 [ABT-263, N-(4-(4-((2-(4-chlorophenyl)-5,5-dimethyl-1-cyclohex-1-en-1-yl)methyl)piperazin-1-yl)benzoyl)-4-(((1R)-3-(morpholin-4-yl)-1-((phenylsulfanyl)methyl)propyl)amino)-3-((trifluoromethyl)sulfonyl)benzenesulfonamide]
binding to Bcl-2, Bcl-w and Bcl-xL [5]: bind strongly | binding to Mcl-1 and A1 [6]: only weakly | cytotoxic activity in certain xenograft models as single agents [7]: demonstrated cytotoxic activity

CN1CCN(CCCNc2ncnc3c2cnn3-c2ccc(OCCCc3sc(N4CCc5cccc(C(=O)Nc6nc7ccccc7s6)c5C4)nc3C(=O)O)cc2)CC1 [Example 84, 2-(8-(benzo[d]thiazol-2-ylcarbamoyl)-3,4-dihydroisoquinolin-2(1H)-yl)-5-(3-(4-(4-(3-(4-methylpiperazin-1-yl)propylamino)-1H-pyrazolo[3,4-d]pyrimidin-1-yl)phenoxy)propyl)thiazole-4-carboxylic acid]
Ki [1]: 0.05 nM | Ki [2]: 140 nM | EC50 [3]: 22 nM | EC50 [4]: 610 nM
